Reference: patent US20250270180A1, “MEK INHIBITORS AND THERAPEUTIC USES THEREOF” (Immuneering Corporation, priority 2020, published 2025)

Columns and labels:
[1] = system: A549 CRAF BP (MEK phosphorylation); assay: A549-CRAF BP 100 nM, 2 h (pMEK); type: cell-based; conditions: Homo sapiens, A549, 2 h, phospho:total ratio normalized to DMSO control
Summary of the method: (§1)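 Cells treated in duplicate for 2 h with compound, lysed and protein-normalised (1 mg/mL pERK, 1.5 mg/mL pMEK). Quantitative capillary Western; phospho/total protein ratio normalised to DMSO.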

[2] = Mouse liver microsome stability (t1/2, Clint); type: in vitro ADME; conditions: liver microsomes, pH 7.4, 0.5 mg/ml microsomal protein
Experimental: (Eppendorf 5804R). […] The disappearance of the parent compound was determined.

[3] = Human liver microsome stability (t1/2, Clint); type: in vitro ADME; conditions: microsomes, pH 7.4, 0.5 mg/ml microsomal protein
[4] = Metabolite ID study, monkey hepatocytes; type: in vitro ADME; conditions: 10 uM compound 9, T=60 min
Experimental: (§2) Animal Studies: Compound 9 was tested using six species hepatocytes in a metabolite ID study (T=60 min).
(§3) Cryopreserved hepatocytes from a selected species were thawed and incubated in duplicate with 10 uM compound 9 in Krebs-Henseleit buffer. […] Viability of hepatocytes was >70% after thawing.
(§4) (Eppendorf 5804R). […] The disappearance of the parent compound was determined, and the formation of metabolites was evaluated. Metabolites present at >1% of total compound related material (based on peak area) were identified by interpretation of the LC-MS/MS data.
(§5) MS settings were optimized for the flow rate. Full scan spectra were acquired in combination with data dependent MS2.
(§6) The spectra obtained from all samples were screened for the presence of m/z values that are absent in the blank incubations (incubations with hepatocytes without compound and with vehicle control, and incubations of compound in buffer without hepatocytes). T=60 min incubations were used as an initial screening. All possible metabolites observed were semi-quantified by MS response (peak area). MS2 spectra were interpreted to determine possible location of the metabolism reaction. The presence of metabolites identified was compared across the selected species.

[5] = Metabolite ID study, rat hepatocytes; type: in vitro ADME; conditions: 10 uM compound 9, T=60 min
Experimental: as §2, §3, §4, §5, §6

A375 pERK:tERK = assay: Cell-based pERK:tERK, A375
Experimental: Materials and Methods: A549 or A375 cells were seeded in 6-well plates at an appropriate seeding density on day 0. On day 2 or 3, after checking the health and confluency of cells, the media was aspirated and replaced with 1 mL media containing a predetermined concentration of compound and incubated for 2 hours. After 2 hours, the media was aspirated, and the cells washed 2 times with cold PBS. Cells were lysed on ice, with 50 uL 1×CST lysis buffer+1 mM PMSF for 5 minutes. After 5 minutes, cells were removed using a scraper and transferred to cold 1.5 mL tubes, and centrifuged for 10 min, 4° C., 14,000×g. Supernatant was gently removed and snap frozen in liquid nitrogen. Protein concentration of the lysate was determined using Bradford Reagent (analyzed using SpectraMax M2E) and diluted to 1 mg/mL or pERK or 1.5 mg/mL for pMEK analysis. […] All dilutions were in Milk-free antibody diluent.

A549 pERK = assay: A549-pERK, 2 h (quantitative Western, Jess); type: cell-based; conditions: Homo sapiens, A549, 2 h, phospho:total ratio normalized to DMSO control
Summary of the method: as §1

A549 pMEK:tMEK (CRAF) = assay: CRAF-bypass pMEK:tMEK, A549; type: cell-based
Experimental: Materials and Methods: A549 or A375 cells were seeded in 6-well plates at an appropriate seeding density on day 0. On day 2 or 3, after checking the health and confluency of cells, the media was aspirated and replaced with 1 mL media containing a predetermined concentration of compound and incubated for 2 hours. After 2 hours, the media was aspirated, and the cells washed 2 times with cold PBS. Cells were lysed on ice, with 50 uL 1×CST lysis buffer+1 mM PMSF for 5 minutes. After 5 minutes, cells were removed using a scraper and transferred to cold 1.5 mL tubes, and centrifuged for 10 min, 4° C., 14,000×g. Supernatant was gently removed and snap frozen in liquid nitrogen. Protein concentration of the lysate was determined using Bradford Reagent (analyzed using SpectraMax M2E) and diluted to 1 mg/mL or pERK or 1.5 mg/mL for pMEK analysis. Cell lysates were then analyzed for phosphor-ERK/total-ERK levels on a Jess system (ProteinSimple; Cat #JS3346) using the following antibodies: tERK1/2 (CST 4696; 1:50) and pERK1/2 (CST 4377; 1:50). […]
A549 or […] cells were treated in duplicate for two hours with compounds at varying concentrations. […] After storage, the lysate was quantified with the Bradford assay. Before the lysates were prepared to run on the Jess, the lysates were diluted to 1 mg/mL for pERK analysis and 1.5 mg/mL pMEK analysis using quantitative Western blotting. […]

[6] = Metabolite ID study, six species hepatocytes; type: in vitro ADME; conditions: hepatocyte incubations, T=60 min
Experimental: as §2, §3, §4, §6
Primary metabolite shown for each species in bold font. Several masses found were also present in incubations with compound in buffer and were considered not to be metabolites.

hERG Channel = hERG Channel (Homo sapiens, UniProt Q12809); assay: in vitro
Chain of hERG Channel (Q12809 whole entry): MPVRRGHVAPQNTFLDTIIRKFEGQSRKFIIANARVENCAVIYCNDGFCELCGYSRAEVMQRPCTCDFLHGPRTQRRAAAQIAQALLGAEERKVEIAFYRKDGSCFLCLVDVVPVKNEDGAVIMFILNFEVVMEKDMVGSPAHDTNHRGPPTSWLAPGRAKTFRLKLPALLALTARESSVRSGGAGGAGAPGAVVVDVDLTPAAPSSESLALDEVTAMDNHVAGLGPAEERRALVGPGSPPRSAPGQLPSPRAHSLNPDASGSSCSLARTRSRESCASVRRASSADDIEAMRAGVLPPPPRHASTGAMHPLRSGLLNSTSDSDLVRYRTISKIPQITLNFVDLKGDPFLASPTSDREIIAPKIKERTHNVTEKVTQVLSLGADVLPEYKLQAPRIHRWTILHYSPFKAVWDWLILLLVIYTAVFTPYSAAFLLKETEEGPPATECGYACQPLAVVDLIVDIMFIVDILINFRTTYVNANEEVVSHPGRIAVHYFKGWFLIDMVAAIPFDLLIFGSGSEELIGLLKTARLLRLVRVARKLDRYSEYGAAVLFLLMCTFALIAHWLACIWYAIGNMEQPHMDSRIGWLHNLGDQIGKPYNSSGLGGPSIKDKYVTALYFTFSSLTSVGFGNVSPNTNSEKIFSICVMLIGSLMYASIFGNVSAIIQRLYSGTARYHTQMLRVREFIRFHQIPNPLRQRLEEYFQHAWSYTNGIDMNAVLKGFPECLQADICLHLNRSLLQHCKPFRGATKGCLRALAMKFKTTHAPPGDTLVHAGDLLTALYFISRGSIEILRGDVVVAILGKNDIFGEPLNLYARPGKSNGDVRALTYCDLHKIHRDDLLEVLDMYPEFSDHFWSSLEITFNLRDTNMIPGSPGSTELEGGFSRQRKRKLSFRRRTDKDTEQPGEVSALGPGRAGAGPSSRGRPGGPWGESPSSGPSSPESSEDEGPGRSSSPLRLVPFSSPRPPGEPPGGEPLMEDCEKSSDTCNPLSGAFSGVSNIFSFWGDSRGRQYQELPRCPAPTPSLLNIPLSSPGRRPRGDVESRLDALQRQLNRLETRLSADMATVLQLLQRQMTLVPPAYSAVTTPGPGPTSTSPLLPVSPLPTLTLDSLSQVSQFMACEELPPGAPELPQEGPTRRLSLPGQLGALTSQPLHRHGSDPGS

[7] = Metabolite ID study, human hepatocytes; type: in vitro ADME; conditions: 10 uM compound 9, T=60 min
Experimental: as §2, §3, §4, §5, §6

[8] = Metabolite ID study, rabbit hepatocytes; type: in vitro ADME; conditions: 10 uM compound 9, T=60 min
Experimental: as §2, §3, §4, §5, §6

**Q.** What does the source list for CNS(=O)(=O)Nc1cccc(Cc2c(CN(C)C)c3ccc(OC(=O)N(C)C)cc3oc2=O)c1F [Compound 9]?
**A.** activity at 0.1 µM [1]: 44.9%; half-life at 1 uM [2]: 44 min; microsomal CLint at 1 uM [2]: 32 µL/min/mg; half-life at 1 uM [3]: 35 min; microsomal CLint at 1 uM [3]: 40 µL/min/mg; % of total compound related material based on peak area, Monkey [4]: 95%; % of total compound related material based on peak area, Rat [5]: 95%; A375 pERK:tERK ratio [10 nM; 2 hr] (A375 pERK:tERK): 0.71; activity at 0.01 µM (A549 pERK; 10 nM): 63%; activity at 10 µM (A549 pERK; 10 uM): 1.21%; CRAF A549 pMEK:tMEK [100 nM; 2 hr] (A549 pMEK:tMEK (CRAF)): 0.47; extent of metabolism in hepatocytes from different species [6]: not extensively metabolized; IC50 (hERG Channel): 26.2 µM; % of total compound related material based on peak area, Human [7]: 99%; % of total compound related material based on peak area, Rabbit [8]: 93%
